We go through five molecules from patent US5573908A, “Adrenergic receptor as a proto-oncogene” (Duke University, priority 1993, dated 1996).

Experiment [1] concerns the target T1, α1B ADR mutant (Mesocricetus auratus, UniProt P18841, A293L/K290H/R288K).
T1 construct: expressed in transfected cells; host or cells: RAT-1 fibroblasts (vector pZIP-NeoSV(X)1), focus-derived, G418-selected lines
T1 sequence (P18841 1-515 R288K/K290H/A293L): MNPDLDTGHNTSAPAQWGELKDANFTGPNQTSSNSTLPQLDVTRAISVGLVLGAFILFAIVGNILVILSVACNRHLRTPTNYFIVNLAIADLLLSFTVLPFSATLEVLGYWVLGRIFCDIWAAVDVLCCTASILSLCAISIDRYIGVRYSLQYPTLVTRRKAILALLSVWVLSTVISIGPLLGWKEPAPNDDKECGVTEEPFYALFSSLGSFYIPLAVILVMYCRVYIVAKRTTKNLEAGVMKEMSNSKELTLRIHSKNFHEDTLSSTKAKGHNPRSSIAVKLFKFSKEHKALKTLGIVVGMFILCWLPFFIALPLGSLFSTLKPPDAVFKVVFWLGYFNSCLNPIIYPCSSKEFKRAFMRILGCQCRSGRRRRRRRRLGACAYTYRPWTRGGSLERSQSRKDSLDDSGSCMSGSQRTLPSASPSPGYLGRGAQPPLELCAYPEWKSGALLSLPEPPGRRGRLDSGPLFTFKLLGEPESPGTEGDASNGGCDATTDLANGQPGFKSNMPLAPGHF
Briefly: Ligand binding on membranes of RAT-1 fibroblast cell lines expressing the α1B ADR mutant. More on the design: species or system hamster. The following applies: two clones. On the procedure: (§1) In Table 3, RAT-1 fibroblast cell lines transfected with expression vector alone or derived from transformed foci (α1B ADR or α1B ADR mutant) were selected with G418 (300 μg/ml). Ligand binding was performed on membranes prepared from two clones of each in accordance with known techniques (S. Cotecchia et al., Life Sci. 37, 2389 (1986)). For saturation binding analysis, [^125 ] HEAT concentrations ranged from 10 to 500 pM, nonspecific binding was determined using 1 μM prazosin; in competition experiments, the radioligand concentration was 100 pM. Ligand binding parameters were determined using computerized iterative nonlinear regression analysis (P. Munson, Methods in Enzymol. 92, 5432 (1983)). For assessment of receptor coupling to PI hydrolysis, cells were plated in 30 mm dishes, and labeled overnight with 3 μCi/ml of myo-[2-^3 II(N)]-inositol (1Ci=37 GBq; NEN Research Products) in DMEM containing 3.3% FBS in accordance with known techniques (S. Cotecchia et al., Proc. Natl. Acad. Sci. USA 87, 2896 (1990)). After 40 minute stimulation of cells with 10 μM norepinephrine (NE), inositol phosphates were extracted, and separated on AG 1-X8 anion exchange columns (BioRad Labs) in accordance with known techniques (S. Cotecchia et al., Proc. Natl. Acad. Sci. USA 87, 2896 (1990)). Total inositol phosphates were eluted with 1M ammonium formate/0.1M formic acid. Rmax indicates the percentage increase of total labeled inositol phosphates over basal levels following NE stimulation.

Experiment [2] addresses T2, α1B ADR (Mesocricetus auratus, UniProt P18841).
T2 construct: expressed in transfected cells; host or cells: RAT-1 fibroblasts (vector pZIP-NeoSV(X)1), focus-derived, G418-selected lines
T2 sequence (P18841 1-515): T1 sequence (P18841 1-515 R288K/K290H/A293L) with K288R, H290K, L293A
Briefly: Ligand binding on membranes of RAT-1 fibroblast cell lines expressing the α1B ADR. More on the design: species or system hamster. The settings on record: two clones. Here is the method:
as §1

The test system of experiment [3] is α1B -ADR.
Description: To quantitate receptor-mediated effects on mitogenesis, basal and NE-stimulated growth rates were assessed on cell lines expressing the wild type or mutant α1B -ADRs.
Experiment [4] has as its system RAT-1 fibroblasts transfected with α1B -ADR c-DNA. Briefly: Focus formation in RAT-1 fibroblasts transfected with α1B-ADR c-DNA. The class given is cell-based. The following applies: focus-derived RAT-1 cell lines; data not shown. On the procedure:
Transfection was carried out as follows: RAT-1 fibroblasts were seeded at a density of 2×10^5 cells in Dulbecco's modified Eagle's medium (DMEM) (Gibco) containing 5% fetal bovine serum (FBS) in 100 mm dishes. […] After 16 hours, the DNA precipitate was removed, the cells washed and grown for 24 hours in complete medium. Cells were split 1:5, allowed to attach overnight and then cultured in DMEM with 5% FBS alone, supplemented with 10 μM norepinephrine (NE) or G418 (300 μg/ml). Dishes were supplemented with NE daily, and fed every 3 days with fresh medium.

The test system of experiment [5] is RAT-1 fibroblast cell line derived from a single transformed focus expressing the α1B -ADR. Briefly: Morphology of focus-derived RAT-1 fibroblast cell line expressing the α1B-ADR. The class given is cell-based. The settings on record: 10 μM NE and 1 μM prazosin, 36 hours.
The mark [6] stands for this setting: saturation binding 10 to 500 pM, nonspecific binding with 1 μM prazosin, read-out: [125I] HEAT Kd.
[7] abbreviates: serum free medium, data not shown.

Usually Kd stands for the free concentration of one partner at which half of the binding sites on the other are occupied at equilibrium, for simple one-to-one binding.

Numbering of substitutions follows the chain as printed. “And” between values parts separate entries of the source, which are not always exact repeats. Equal entries are not always repeated. “Also recorded” adds a separate entry of the source. Where two headings read alike, the source gives them in different places.

On to `O=C1c2ccccc2CCC1CNCCc1ccc(O)c([125I])c1` (stereo not shown) [[^125 I] HEAT, 2{b-(4-hydroxy-3-[^125 I]iodophenyl)ethylaminomethyl}-tetralone], for which the dissociation constant (Kd) is 0.0379 nM and 0.0463 nM in experiment [1] (setting [6]); 0.0441 nM and 0.0383 nM in experiment [2] (setting [6]). In addition, the “[125I] HEAT Bmax” value in experiment [1] (saturation binding) was 2.2 pmol/mg and 2.6 pmol/mg; in experiment [2] (saturation binding), 5.1 pmol/mg and 2.7 pmol/mg.

`c1ccc2c(c1)OCC(C1=NCCN1)O2` (stereo not shown) [idazoxan]: in experiment [3] (setting [7]), the “blockade of NE-induced increase in DNA synthetic activity” value (from here on “blockade of NE-induced increase”) is reported as “not”.

Take `COc1cc2nc(N3CCN(C(=O)c4ccco4)CC3)nc(N)c2cc1OC` [prazosin]: the “blockade of NE-induced increase” value in experiment [3] is “could be blocked”. Also, the “inhibition of agonist-dependent focus formation by concurrent antagonist” value in experiment [4] is given as “could be inhibited”. For the same molecule, the “effect of concurrent antagonist on agonist-induced transformation (morphology)” value in experiment [5] is given as “blocked agonist-induced transformation; also recorded: reverted the cells to the untransformed phenotype”.

On to `CC(C)NCC(O)COc1cccc2ccccc12` (stereo not shown) [propranolol], for which the “blockade of NE-induced increase” value in experiment [3] (setting [7]) is “not”.

With `COC(=O)[C@@H]1[C@H]2C[C@H]3c4[nH]c5ccccc5c4CCN3C[C@@H]2CC[C@@H]1O` [yohimbine], the “blockade of NE-induced increase” value in experiment [3] is recorded as “not”.
